Data published in patent publication US6716809B1, “Mage-A3 peptides presented by HLA class molecules” (priority 1997, dated 2004).

Assays:
Format in all cases: cell-based, human
[1] = test system: CD4+ clone 436/B6.37 (B6/37); test: IFN-γ/TNF production by CD4+ clone B6/37 (clone 37) stimulated with peptide- or protein-pulsed EBV-B cells; conditions: for IFN-γ production by clone 37: autologous LB 1555 EBV-B cells; for IFN-γ production by clone B6/37, truncated peptides: autologous EBV-B cells pulsed with truncated peptides (FIG. 8)
Protocol: The microcultures that contained proliferating CD4^+ T cells were assessed around 35 days after the start of the culture for their capacity to produce TNF and/or IFN-γ when stimulated with autologous EBV-B cells pulsed with the His-MAGE-A3 protein. Autologous EBV-B cells (500,000/ml) were incubated for 18-20 hours at 37° C. in the presence of 20 μg/ml of His-MAGE-A3 protein, or Ovalbumin (Sigma) as a negative control. EBV-B cells referred to herein are B cells which were immortalized with Epstein Barr virus. The EBV-B cells were prepared according to art-standard procedures. Protein-pulsed EBV-B cells were washed and added at 5,000 per round-bottomed microwell to 2,500 CD4^+ T lymphocytes in 150 μl of complete Iscove's medium supplemented with L-glutamine, L-arginine, L-asparagine, 10% human serum and IL-2 (25 U/ml). After 18-20 hours, supernatants were harvested and assessed for TNF content by testing the cytotoxic effect of the supernatants on TNF-sensitive WEHI 164 clone 13 cells as previously described (Espevik and Nissen-Meyer, J. Immunol. Methods 95:99-105, 1986) in a MTT colorimetric assay as previously described (Hansen et al., J. Immunol. Methods 119:203-210, 1989; Traversari et al., Immunogenetics 35:145-152, 1992). IFN-γ production was measured using an ELISA assay developed in our laboratory (see below) with reagents from Medgenix Diagnostics-Biosource (Fleurus, Belgium). Inhibition with mAbs W6/32 (anti-HLA class I) or 2B6 (anti-HLA-DR) was performed by addition of a 1/20 dilution of ascites during the experiment. Cytokine secretion in response to autologous EBV-B cells pulsed with MAGE-A3 was considered significant if it was at least twofold above the background response of T cells to EBV-B cells pulsed with ovalbumin, and if it exceeded 500 pg of IFN-γ or 50 pg/ml of TNF per ml.
In order to identify the MAGE-A3 peptides recognized by these CD4^+ clones, 16 amino acid peptides, corresponding to parts of the MAGE-A3 protein sequence were synthesized, loaded on the autologous EBV-B cells and tested for recognition (FIGS. 4 and 5). Peptides were synthesized using F-moc for transient NH2-terminal protection and were characterized using mass spectrometry. […] Lyophilized synthetic peptides were dissolved in DMSO (Merck) and used at a final concentration of 500 μM, 50 μM or 5 μg/ml. EBV-B cells (5,000 per round-bottomed microwell) were incubated 2 hours at 37° C., 8% CO2 in the presence of the different peptides, the indicated concentrations representing the peptide concentration during the incubation step. CD4^+ clones were then added at 2,500 cells per well. Assay medium was Iscove's medium supplemented with L-glutamine, L-arginine, L-asparagine, 10% human serum and IL-2 (25 U/ml). After 18-20 hours, supernatants were harvested and assessed for TNF-α and/or IFN-γ secretion. IFN-γ production was measured using an ELISA test (20-4000 pg/ml) developed in the laboratory with reagents from Medgenix Diagnostics-Biosource (Fleurus, Belgium).
To further define the HLA-restriction element utilized by clone B6/37, additional EBV-B cell lines were used for peptide presentation as described above (FIG. 7).
(§1) Unlike HLA-class I-restricted peptides, class II-restricted peptides usually vary in length and tolerate extensions at both the amino and carboxy termini, because they are not fixed by their ends in the groove. It is therefore difficult to define precisely the length of the antigenic peptide. Therefore a large number of MAGE-A3 peptides were tested at different concentrations (Tables IV and V). […] 2500 cells of clone 37 were then cocultured for 20 h in round-bottomed microwells with 5000 peptide-pulsed cells. IFN-γ released in the supernatant of the cocultures was measured in an ELISA assay. The experiments were performed in triplicate.

[2] = test system: LB1158 CD4+ clone 22; test: IFN-γ production by CD4+ clone 22 stimulated with peptide- or protein-pulsed EBV-B cells; conditions: HLA-DR13 EBV-B cells
Protocol: (§2) In order to confirm the efficacy of this protocol, dendritic cells were fed with the MAGE-3 protein, using conditions described above, to stimulate autologous CD4^+ T lymphocytes from hemochromatosis patient LB1158 or from melanoma patient 7002. After four restimulations, the specific production of IFN-γ by an aliquot of each of the microcultures stimulated with the autologous EBV-B cells loaded with MAGE-A3 were tested on day 35 for patient LB1158 and day 37 for patient 7002. For each individual, one positive microculture was cloned using autologous EBV-B cells as stimulating cells, either retrotransduced with MFG Ii MAGE-A3 for LB1158, or fed with protein MAGE-A3 for patient 7002. […] Specifically, autologous EBV-B cells were incubated for 20 h in the presence of 20 μg/ml of recombinant His-MAGE-A3 protein. Clone 22 (2500 cells) was incubated overnight with 5000 MAGE-A3 loaded EBV-B cells in round botton microwells in the presence or absence of monoclonal antibodies which recognize HLA-A,B,C (W6/32) or HLA-DR (2B6). IFN-γ secretion was measured after 20 h by ELISA (FIG. 15A).
(§3) Peptides corresponding to parts of MAGE-A3 (e.g., MAGE107-122, MAGE111-126, MAGE115-130, MAGE119-134) were tested for recognition by clone 2 and 22. HLA-DR13 EBV-B cells were pulsed for 2 h with different concentrations of these peptides. Clones 2 and 37 (2500 cells) were incubated with 5000 peptide pulsed cells in round-bottomed microwells for 20 h and assayed for IFN-γ production.
(§4) Autologous or allogeneic EBV-B cells were pulsed for 2 h with 1 μg/ml MAGE-A3119-134 peptide, and then washed. Clones 2 or 22 were incubated with 5000 peptide-pulsed EBV-B cells in round-bottomed microwells for 20 h and the clones' reactivity to the EBV-B cells was measured by ELISA as IFN-γ secretion. Experiments were performed in triplicate.
as §1, with “triplicate. […] Clones 2 and 22 (2500 cells) were then cocultured for 20 h in round-bottomed microwells with 5000 peptide-pulsed cells. IFN-γ released in the supernatant of the cocultures was measured in an ELISA assay. The experiments was performed twice in duplicates.” for “triplicate.”

[3] = test system: 7002 CD4+ clone 2; test: IFN-γ production by CD4+ clone 2 stimulated with peptide- or protein-pulsed EBV-B cells; conditions: HLA-DR13 EBV-B cells
Protocol: as §2, §3, §4
as §1, with “triplicate. […] Clones 2 and 22 (2500 cells) were then cocultured for 20 h in round-bottomed microwells with 5000 peptide-pulsed cells. IFN-γ released in the supernatant of the cocultures was measured in an ELISA assay. The experiments was performed twice in duplicates.” for “triplicate.”

[4] = peptide concentration 100 ng/ml
[5] = peptide concentration 300 ng/ml
[6] = peptide concentration 1000 ng/ml

Substance | IFN-γ production by clone 37 ([1]; peptide concentration 1 ng/ml) [pg/mL] | IFN-γ production by clone 37 ([1]; peptide concentration 3 ng/ml) [pg/mL] | IFN-γ production by clone 37 ([1]; peptide concentration 10 ng/ml) [pg/mL] | IFN-γ production by clone 37 ([1]; peptide concentration 30 ng/ml) [pg/mL] | IFN-γ production by clone 37 [1, 4] [pg/mL] | IFN-γ production by clone 37 [1, 5] [pg/mL] | IFN-γ production by clone 37 [1, 6] [pg/mL] | further results
AELVHFLLLKYRA (listed as Homo sapiens) | 134 | 139 | 620 | 2523 | >4000 | >4000 | >4000 | 
AELVHFLLLKYRAR (listed as Homo sapiens) | 151 | 272 | 802 | 2862 | >4000 | >4000 | >4000 | recognition of short peptide by clone 37 ([1]; conclusion from Table IV): well recognized
AELVHFLLLKYRARE (listed as Homo sapiens) | 38 | 230 | 235 | 1473 | 3837 | >4000 | >4000 | 
ELVHFLLLKYRA (listed as Homo sapiens) [MAGE-A3115-126] |  |  |  |  |  |  |  | IFN-γ production by clone B6/37, truncated peptides [1]: induced significant production
ELVHFLLLKYRAR (listed as Homo sapiens) | 47 | 192 | 333 | 1899 | 3633 | >4000 | >4000 | 
ELVHFLLLKYRARE (listed as Homo sapiens) | 25 | 160 | 166 | 1087 | 3095 | >4000 | >4000 | 
FLLLKYRAREP (listed as Homo sapiens) |  |  |  |  |  |  |  | IFN-γ production by clone 22 ([2]; peptide concentration 1 ng/ml): 0 pg/mL; IFN-γ production by clone 22 ([2]; peptide concentration 3 ng/ml): 0 pg/mL; IFN-γ production by clone 22 ([2]; peptide concentration 10 ng/ml): 1 pg/mL; IFN-γ production by clone 22 ([2]; peptide concentration 30 ng/ml): 7 pg/mL; IFN-γ production by clone 22 [2, 4]: 6 pg/mL; IFN-γ production by clone 22 [2, 5]: 7 pg/mL; IFN-γ production by clone 22 [2, 6]: 30 pg/mL; IFN-γ production by clone 2 ([3]; peptide concentration 1 ng/ml): 0 pg/mL; IFN-γ production by clone 2 ([3]; peptide concentration 3 ng/ml): 0 pg/mL; IFN-γ production by clone 2 ([3]; peptide concentration 10 ng/ml): 0 pg/mL; IFN-γ production by clone 2 ([3]; peptide concentration 30 ng/ml): 0 pg/mL; IFN-γ production by clone 2 [3, 4]: 85 pg/mL; IFN-γ production by clone 2 [3, 5]: 0 pg/mL; IFN-γ production by clone 2 [3, 6]: 23 pg/mL
FLLLKYRAREPV (listed as Homo sapiens) |  |  |  |  |  |  |  | IFN-γ production by clone 22 ([2]; peptide concentration 1 ng/ml): 0 pg/mL; IFN-γ production by clone 22 ([2]; peptide concentration 3 ng/ml): 3 pg/mL; IFN-γ production by clone 22 ([2]; peptide concentration 10 ng/ml): 13 pg/mL; IFN-γ production by clone 22 ([2]; peptide concentration 30 ng/ml): 132 pg/mL; IFN-γ production by clone 22 [2, 4]: 383 pg/mL; IFN-γ production by clone 22 [2, 5]: 746 pg/mL; IFN-γ production by clone 22 [2, 6]: 1353 pg/mL; IFN-γ production by clone 2 ([3]; peptide concentration 1 ng/ml): 0 pg/mL; IFN-γ production by clone 2 ([3]; peptide concentration 3 ng/ml): 4 pg/mL; IFN-γ production by clone 2 ([3]; peptide concentration 10 ng/ml): 78 pg/mL; IFN-γ production by clone 2 ([3]; peptide concentration 30 ng/ml): 216 pg/mL; IFN-γ production by clone 2 [3, 4]: 821 pg/mL; IFN-γ production by clone 2 [3, 5]: 1632 pg/mL; IFN-γ production by clone 2 [3, 6]: 2667 pg/mL
MAGE-A3116-126: shortened MAGE-A3 peptide, residues 116-126 (LVHFLLLKYRA; listed as Homo sapiens) |  |  |  |  |  |  |  | IFN-γ production by clone B6/37, truncated peptides [1]: reduced amounts
MAGE-A3118-126: shortened MAGE-A3 peptide, residues 118-126 |  |  |  |  |  |  |  | IFN-γ production by clone B6/37, truncated peptides [1]: did not induce the production of significant amounts
VAELVHFLLLKYRA (listed as Homo sapiens) | 7 | 179 | 87 | 648 | 2534 | >4000 | >4000 | 
VAELVHFLLLKYRAR (listed as Homo sapiens) | 146 | 262 | 779 | 2963 | >4000 | >4000 | >4000 | 
VAELVHFLLLKYRARE (listed as Homo sapiens) | 30 | 300 | 376 | 1647 | >4000 | >4000 | >4000 | 
VHFLLLKYRA (listed as Homo sapiens) [MAGE-A3117-126] |  |  |  |  |  |  |  | IFN-γ production by clone B6/37, truncated peptides [1]: reduced amounts
